From ChEMBL document CHEMBL1201862, “PubChem BioAssay data set” (2004)
Calls of active or inactive are those of the source.

Experiments:
Mucolipin-3 = molecular target: T1, Mucolipin-3 (Homo sapiens, UniProt Q8TDD5); assay: Dose response cell-based high-throughput screening assay for agonists of the transient receptor potential channel ML3 (TRPML3). [Related pubchem assays: 1526, 1424, 1448 ]; assay type: functional
T1 sequence (Q8TDD5 whole entry): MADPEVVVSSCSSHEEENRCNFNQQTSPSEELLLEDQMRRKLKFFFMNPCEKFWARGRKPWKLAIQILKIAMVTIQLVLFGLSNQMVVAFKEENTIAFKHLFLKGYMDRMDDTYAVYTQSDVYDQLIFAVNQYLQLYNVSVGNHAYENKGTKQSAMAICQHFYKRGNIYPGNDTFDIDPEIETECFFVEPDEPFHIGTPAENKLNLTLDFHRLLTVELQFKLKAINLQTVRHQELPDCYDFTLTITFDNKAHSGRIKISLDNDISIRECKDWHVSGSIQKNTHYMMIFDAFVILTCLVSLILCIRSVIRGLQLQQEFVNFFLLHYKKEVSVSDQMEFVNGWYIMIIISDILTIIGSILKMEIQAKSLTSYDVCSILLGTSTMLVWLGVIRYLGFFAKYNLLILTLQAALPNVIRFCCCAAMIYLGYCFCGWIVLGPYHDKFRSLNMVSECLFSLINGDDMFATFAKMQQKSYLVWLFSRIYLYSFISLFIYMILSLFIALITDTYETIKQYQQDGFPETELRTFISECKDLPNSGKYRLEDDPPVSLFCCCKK

Ion channel NompC = Ion channel NompC (Danio rerio, UniProt Q7T1G6); assay: Fluorescence counterscreen assay for TRPML3 agonists: dose response cell-based high-throughput screening assay to identify agonists of the transient receptor potential channel N1 (TRPN1). [Related pubchem assays: 1526, 1424, 1448 ]; assay type: functional
Chain of Ion channel NompC (Q7T1G6 whole entry): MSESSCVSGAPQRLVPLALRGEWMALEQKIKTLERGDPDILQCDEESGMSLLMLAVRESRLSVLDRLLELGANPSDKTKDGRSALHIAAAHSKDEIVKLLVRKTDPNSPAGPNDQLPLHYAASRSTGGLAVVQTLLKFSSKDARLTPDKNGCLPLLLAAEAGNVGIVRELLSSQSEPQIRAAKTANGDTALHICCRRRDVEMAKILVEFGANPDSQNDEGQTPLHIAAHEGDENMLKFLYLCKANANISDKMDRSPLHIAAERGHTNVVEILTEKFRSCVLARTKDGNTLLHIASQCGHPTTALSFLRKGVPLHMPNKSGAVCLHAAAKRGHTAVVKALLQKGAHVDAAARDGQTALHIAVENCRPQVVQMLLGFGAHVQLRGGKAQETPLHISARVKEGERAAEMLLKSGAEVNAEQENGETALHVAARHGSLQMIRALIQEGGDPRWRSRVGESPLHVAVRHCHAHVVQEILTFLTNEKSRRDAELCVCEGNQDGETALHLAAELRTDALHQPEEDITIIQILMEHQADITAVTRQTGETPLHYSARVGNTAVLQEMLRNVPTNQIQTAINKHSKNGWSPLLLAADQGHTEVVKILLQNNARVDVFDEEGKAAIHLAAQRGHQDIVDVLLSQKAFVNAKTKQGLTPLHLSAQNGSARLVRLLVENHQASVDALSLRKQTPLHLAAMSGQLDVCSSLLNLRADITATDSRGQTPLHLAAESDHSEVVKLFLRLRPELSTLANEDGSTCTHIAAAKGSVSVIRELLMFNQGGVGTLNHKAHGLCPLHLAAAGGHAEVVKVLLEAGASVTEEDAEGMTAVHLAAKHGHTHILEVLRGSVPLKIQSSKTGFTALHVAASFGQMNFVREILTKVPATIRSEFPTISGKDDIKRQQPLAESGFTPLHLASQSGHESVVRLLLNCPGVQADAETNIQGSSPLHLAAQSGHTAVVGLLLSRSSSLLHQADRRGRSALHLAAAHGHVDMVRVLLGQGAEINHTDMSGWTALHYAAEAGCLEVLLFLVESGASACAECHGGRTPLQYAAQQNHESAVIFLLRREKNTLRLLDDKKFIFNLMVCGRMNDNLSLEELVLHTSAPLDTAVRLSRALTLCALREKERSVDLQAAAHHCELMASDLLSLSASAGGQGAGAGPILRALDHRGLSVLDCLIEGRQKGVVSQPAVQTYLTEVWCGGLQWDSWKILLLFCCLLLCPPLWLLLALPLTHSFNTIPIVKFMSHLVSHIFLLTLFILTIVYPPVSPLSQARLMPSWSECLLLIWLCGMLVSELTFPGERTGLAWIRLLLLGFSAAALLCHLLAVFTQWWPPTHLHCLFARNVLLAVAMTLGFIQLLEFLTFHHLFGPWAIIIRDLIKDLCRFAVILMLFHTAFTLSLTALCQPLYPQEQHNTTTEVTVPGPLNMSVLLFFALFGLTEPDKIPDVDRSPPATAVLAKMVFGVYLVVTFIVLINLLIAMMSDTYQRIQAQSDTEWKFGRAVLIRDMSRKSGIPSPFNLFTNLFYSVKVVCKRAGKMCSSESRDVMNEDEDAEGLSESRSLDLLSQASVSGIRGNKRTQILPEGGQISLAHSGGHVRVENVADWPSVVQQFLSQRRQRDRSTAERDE

[1] = Luminescence Cell-Based Dose Retest to Confirm Inhibitors of Cancer Stem Cells. [Related pubchem assays (depositor defined):AID2717, AID2721]; assay type: functional; settings: Homo sapiens
[2] = molecular target: Disintegrin and metalloproteinase domain-containing protein 17 (Homo sapiens, UniProt P78536); assay: ADAM17 protease inhibitors, dose response, counter-screen for ADAM10 exosite inhibitor project, biochemical, quenched FRET substrate (AID 743253)
Chain of Disintegrin and metalloproteinase domain-containing protein 17 (P78536 whole entry, the tested form may be a part): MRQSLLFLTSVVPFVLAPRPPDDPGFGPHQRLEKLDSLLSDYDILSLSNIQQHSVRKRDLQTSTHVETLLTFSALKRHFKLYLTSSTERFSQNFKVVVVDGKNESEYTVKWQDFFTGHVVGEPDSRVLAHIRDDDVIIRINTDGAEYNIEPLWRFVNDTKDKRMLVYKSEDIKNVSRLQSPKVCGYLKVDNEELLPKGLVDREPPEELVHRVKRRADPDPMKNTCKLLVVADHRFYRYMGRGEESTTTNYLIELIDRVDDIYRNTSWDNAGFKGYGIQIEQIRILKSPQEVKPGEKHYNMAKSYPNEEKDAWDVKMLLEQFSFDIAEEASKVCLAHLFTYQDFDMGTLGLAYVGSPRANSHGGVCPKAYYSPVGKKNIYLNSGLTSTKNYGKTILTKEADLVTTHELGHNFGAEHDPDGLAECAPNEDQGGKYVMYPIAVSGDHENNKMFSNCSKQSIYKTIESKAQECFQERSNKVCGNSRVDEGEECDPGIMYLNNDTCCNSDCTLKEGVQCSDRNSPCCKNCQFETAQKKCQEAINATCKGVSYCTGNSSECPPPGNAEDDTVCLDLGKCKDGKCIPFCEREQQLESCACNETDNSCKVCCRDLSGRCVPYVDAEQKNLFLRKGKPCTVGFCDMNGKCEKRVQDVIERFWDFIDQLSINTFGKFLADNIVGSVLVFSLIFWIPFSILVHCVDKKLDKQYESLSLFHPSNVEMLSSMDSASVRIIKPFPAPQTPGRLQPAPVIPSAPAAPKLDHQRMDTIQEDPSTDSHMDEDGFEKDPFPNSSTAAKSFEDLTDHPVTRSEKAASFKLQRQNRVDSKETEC

[3] = inhibitors of intracellular T. cruzi replication, confirmation, NIH3T3 host cells, beta-gal luminescence (AID 2044); assay type: functional, cell-based;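 also: intracellular parasites grown in NIH/3T3 mouse fibroblasts as host cells; luminescent beta-galactosidase reporter signal from transgenic T. cruzi replicating inside host cells; inhibitors lower the luminescence signal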
[4] = cytotoxicity toward NIH3T3 fibroblasts, dose response, counter-screen, cell-based, ATP luminescence, mouse fibroblasts (AID 2010); assay type: functional;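 also: cells exposed to compound for about 90 hours before reading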
Exodeoxyribonuclease V = molecular target: T2, Exodeoxyribonuclease V (Escherichia coli (strain K12), UniProt P04993+P07648+P08394); assay: E. coli RecBCD inhibitors, dose response, counter-screen for AddAB inhibitor project, absorbance, V66 E. coli, mutant T4 phage (AID 492957); assay type: functional, cell-based, Escherichia coli str. K-12 substr. MG1655
T2 sequence (P04993 whole entry): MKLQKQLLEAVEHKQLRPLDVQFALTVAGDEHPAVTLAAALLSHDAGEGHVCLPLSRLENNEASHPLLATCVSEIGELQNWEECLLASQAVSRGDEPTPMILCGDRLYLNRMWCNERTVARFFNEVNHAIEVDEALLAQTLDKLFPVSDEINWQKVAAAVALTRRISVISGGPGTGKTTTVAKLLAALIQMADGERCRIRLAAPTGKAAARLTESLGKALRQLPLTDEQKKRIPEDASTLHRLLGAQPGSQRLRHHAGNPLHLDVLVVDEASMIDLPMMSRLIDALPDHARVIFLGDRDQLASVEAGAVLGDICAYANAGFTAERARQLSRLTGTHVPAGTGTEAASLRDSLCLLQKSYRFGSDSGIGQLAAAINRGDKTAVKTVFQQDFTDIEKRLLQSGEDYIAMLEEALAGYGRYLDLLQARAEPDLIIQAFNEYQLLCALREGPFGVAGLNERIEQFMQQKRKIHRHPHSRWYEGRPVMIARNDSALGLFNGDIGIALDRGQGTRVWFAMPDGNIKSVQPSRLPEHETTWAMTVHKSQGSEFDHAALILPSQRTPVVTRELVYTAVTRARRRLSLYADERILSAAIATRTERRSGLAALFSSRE
T2 sequence (P07648 whole entry): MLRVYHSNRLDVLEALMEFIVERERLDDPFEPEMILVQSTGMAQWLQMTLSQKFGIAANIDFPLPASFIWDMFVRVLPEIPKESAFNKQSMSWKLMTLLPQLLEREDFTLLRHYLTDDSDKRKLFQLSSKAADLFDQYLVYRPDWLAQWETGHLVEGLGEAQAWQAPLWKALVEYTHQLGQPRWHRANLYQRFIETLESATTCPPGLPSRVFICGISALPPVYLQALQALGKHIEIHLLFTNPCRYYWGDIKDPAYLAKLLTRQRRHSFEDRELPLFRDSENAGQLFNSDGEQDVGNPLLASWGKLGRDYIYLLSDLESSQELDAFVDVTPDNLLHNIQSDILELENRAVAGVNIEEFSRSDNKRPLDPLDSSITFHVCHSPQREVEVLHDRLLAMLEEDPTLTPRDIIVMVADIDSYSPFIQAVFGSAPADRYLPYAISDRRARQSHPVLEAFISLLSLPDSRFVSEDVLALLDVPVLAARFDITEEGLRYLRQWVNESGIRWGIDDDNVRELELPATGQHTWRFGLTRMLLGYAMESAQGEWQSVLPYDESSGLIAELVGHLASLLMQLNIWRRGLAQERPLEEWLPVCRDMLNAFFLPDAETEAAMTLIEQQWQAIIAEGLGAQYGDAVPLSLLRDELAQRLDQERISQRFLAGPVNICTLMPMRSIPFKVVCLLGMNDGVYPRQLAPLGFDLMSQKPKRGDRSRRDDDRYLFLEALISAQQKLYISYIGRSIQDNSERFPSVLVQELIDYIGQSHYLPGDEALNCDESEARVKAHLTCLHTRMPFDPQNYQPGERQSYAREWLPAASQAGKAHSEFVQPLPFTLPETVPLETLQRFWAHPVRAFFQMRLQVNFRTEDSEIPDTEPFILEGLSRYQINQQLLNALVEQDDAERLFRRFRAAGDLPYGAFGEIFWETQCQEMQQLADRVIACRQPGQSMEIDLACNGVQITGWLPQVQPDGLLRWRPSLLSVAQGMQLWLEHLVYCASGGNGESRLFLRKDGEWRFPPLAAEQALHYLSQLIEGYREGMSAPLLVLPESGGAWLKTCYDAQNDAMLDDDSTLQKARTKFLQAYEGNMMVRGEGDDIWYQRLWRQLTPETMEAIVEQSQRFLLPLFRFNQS
T2 sequence (P08394 whole entry): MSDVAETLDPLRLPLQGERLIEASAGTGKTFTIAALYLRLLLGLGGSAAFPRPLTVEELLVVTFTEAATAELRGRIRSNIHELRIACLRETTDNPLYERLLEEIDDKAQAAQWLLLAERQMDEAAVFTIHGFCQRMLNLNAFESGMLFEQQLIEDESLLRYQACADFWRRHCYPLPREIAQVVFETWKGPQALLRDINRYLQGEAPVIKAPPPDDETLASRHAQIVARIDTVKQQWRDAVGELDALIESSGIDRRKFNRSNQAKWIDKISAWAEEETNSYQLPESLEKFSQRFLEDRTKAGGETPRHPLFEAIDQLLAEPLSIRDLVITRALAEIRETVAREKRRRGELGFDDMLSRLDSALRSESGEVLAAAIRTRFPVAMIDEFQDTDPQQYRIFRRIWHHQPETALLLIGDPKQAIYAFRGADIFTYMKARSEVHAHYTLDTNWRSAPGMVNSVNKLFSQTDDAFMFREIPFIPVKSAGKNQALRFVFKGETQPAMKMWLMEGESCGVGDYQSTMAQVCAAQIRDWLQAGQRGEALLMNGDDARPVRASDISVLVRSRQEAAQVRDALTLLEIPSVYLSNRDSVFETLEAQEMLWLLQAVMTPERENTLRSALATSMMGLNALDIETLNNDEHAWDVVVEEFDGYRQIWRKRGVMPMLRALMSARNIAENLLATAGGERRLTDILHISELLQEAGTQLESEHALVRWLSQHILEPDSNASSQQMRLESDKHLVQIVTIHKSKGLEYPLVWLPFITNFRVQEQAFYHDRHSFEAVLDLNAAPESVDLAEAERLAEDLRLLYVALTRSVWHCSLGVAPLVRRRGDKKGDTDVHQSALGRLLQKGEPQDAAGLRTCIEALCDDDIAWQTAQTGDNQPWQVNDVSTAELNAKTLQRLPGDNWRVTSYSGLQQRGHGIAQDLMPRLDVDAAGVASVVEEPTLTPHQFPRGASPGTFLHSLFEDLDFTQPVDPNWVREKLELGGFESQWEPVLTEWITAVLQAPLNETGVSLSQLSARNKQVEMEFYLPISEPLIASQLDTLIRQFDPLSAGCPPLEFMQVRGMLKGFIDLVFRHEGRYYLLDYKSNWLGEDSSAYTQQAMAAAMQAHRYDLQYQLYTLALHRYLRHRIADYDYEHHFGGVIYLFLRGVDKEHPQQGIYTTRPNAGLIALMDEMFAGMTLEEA

Nonstructural protein 1 = Nonstructural protein 1 (Influenza A virus, UniProt Q194T2); assay type: functional, Influenza A virus (A/California/07/2009(H1N1))
Chain of Nonstructural protein 1 (Q194T2 whole entry): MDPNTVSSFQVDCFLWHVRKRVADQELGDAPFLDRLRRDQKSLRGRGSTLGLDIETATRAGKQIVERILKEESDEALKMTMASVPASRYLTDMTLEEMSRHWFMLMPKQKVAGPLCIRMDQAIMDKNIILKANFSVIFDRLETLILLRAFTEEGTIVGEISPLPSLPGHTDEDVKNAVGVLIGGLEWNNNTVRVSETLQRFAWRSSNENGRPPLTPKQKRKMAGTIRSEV

[5] = Counterscreen for AddAB inhibitors: absorbance-based bacterial cell-based high throughput dose response assay for inhibitors of bacterial viability. [Related pubchem assays (depositor defined):AID435030, AID449728, AID449731, AID488942, AID488955, AID488956]; assay type: functional
Galanin receptor type 3 = Galanin receptor type 3 (Homo sapiens, UniProt O60755); assay: Fluorescence-based cell-based primary high throughput dose response assay to identify antagonists of the Galanin Receptor 3 (GalR3).; assay type: functional
Chain of Galanin receptor type 3 (O60755 whole entry): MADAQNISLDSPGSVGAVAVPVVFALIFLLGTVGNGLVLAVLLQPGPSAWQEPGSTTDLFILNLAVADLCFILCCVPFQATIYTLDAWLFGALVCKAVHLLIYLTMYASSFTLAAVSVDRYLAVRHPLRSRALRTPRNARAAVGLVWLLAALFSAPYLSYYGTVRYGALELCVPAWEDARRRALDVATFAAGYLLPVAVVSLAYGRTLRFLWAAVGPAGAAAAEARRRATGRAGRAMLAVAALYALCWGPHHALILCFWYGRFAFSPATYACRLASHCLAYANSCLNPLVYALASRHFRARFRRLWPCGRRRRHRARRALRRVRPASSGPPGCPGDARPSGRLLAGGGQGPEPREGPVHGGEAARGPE

cells [6] = assay type: functional, cell-based; settings: HEK-CNG
cells [7] = assay: cells
Paired box protein Pax-8 = Paired box protein Pax-8 (Homo sapiens, UniProt Q06710); assay: inhibitors of PAX8-driven TPO luciferase reporter, dose response, RMG-I cells, cherry-pick (AID 687027); assay type: functional, cell-based;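 also: luciferase reporter driven by Pax8 target thyroperoxidase promoter measured by SteadyGlo luminescence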
Chain of Paired box protein Pax-8 (Q06710 whole entry): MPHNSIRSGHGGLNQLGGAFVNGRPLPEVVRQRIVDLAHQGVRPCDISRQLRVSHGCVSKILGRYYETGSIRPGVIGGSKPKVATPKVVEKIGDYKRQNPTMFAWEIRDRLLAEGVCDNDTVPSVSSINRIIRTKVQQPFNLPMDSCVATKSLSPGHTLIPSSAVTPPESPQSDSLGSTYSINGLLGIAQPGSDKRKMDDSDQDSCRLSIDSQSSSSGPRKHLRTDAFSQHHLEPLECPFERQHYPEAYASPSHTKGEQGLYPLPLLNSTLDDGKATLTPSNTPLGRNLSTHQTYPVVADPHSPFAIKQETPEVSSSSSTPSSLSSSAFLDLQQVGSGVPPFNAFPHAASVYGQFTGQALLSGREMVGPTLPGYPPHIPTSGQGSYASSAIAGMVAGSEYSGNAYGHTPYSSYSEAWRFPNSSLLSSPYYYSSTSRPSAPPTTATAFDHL

[8] = A2780 ovarian cancer cell cytotoxicity, dose response, cytotoxicity control, plate reader, dry powder samples (AID 743046); assay type: functional, cell-based
[9] = NIH:OVCAR-3 ovarian cancer cell cytotoxicity, dose response, PAX8 inhibitor project, plate reader, dry powder samples (AID 743044); assay type: functional, cell-based
[10] = IGROV1 ovarian cancer cell cytotoxicity, dose response, PAX8 inhibitor project, plate reader, dry powder samples (AID 743043); assay type: functional, cell-based; settings: IGROV-1
[11] = cytotoxicity in OVCAR8 ovarian cancer cells, dose response, PAX8 project, cell-based, plate reader, dry powder samples (AID 743197); assay type: functional; settings: OVCAR-8
[12] = T. cruzi intracellular amastigote growth inhibition, dose response, imaging, CA-I/72 strain, bovine embryo skeletal muscle, dry powder (AID 651885); assay type: functional, cell-based
[13] = molecular target: Potassium channel subfamily K member 9 (Homo sapiens, UniProt Q9NPC2); assay: TASK3 (KCNK9) channel inhibitors, thallium flux, SAR follow-up, selectivity assay for TASK1 inhibitor project, cell-based, FluxOR thallium flux, concentration-response (AID 652211); assay type: functional;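 also: potency is for inhibitors of the channel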
Chain of Potassium channel subfamily K member 9 (Q9NPC2 whole entry, the tested form may be a part): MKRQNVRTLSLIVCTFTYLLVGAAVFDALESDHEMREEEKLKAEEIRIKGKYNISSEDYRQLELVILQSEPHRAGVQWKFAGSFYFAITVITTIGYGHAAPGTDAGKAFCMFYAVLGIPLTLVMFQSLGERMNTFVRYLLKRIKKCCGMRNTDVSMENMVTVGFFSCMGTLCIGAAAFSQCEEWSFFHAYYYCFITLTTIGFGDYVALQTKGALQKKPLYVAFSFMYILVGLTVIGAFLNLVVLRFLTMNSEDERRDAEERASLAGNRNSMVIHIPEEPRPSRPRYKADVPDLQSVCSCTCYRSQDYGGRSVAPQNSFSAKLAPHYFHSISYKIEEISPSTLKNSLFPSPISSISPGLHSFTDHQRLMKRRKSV

[14] = molecular target: Potassium channel subfamily K member 3 (Rattus norvegicus, UniProt O54912); assay: SAR analysis for the identification of selective inhibitors of the two-pore domain potassium channel TASK1(KCNK3):Automated Electrophysiology.; assay type: functional
Chain of Potassium channel subfamily K member 3 (Rattus norvegicus, UniProt O54912) (O54912 whole entry, the tested form may be a part): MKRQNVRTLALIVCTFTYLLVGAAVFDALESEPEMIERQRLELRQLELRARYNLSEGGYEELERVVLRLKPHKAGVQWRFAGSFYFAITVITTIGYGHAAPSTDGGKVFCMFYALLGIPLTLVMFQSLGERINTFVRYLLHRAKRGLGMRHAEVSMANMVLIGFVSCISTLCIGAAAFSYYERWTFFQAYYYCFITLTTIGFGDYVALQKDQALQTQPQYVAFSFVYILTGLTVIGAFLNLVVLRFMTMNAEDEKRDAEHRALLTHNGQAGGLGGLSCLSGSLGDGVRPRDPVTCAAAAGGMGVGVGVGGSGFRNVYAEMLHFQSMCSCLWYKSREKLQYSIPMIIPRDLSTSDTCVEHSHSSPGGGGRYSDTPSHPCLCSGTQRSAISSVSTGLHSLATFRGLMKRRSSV

[15] = molecular target: Potassium channel subfamily K member 3 (Homo sapiens, UniProt O14649); assay: TASK1 (KCNK3) potassium channel inhibitors, SAR follow-up, CHO cells, FluxOR thallium flux (AID 652212); assay type: functional
Chain of Potassium channel subfamily K member 3 (Homo sapiens, UniProt O14649) (O14649 whole entry): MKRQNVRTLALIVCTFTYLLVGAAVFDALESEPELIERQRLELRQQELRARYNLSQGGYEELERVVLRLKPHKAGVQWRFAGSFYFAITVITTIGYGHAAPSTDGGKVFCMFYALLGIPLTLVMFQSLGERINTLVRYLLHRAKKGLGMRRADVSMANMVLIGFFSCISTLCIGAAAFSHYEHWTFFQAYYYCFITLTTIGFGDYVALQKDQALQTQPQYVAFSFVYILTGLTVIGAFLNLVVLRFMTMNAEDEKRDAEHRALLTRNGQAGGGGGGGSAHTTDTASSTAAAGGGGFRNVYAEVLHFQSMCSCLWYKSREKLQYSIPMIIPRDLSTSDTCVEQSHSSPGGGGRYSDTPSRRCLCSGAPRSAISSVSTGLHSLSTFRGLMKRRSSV

CCOC(=O)c1c(CSc2ccc(C)cc2)oc2ccc(O)cc12
EC50 (Mucolipin-3): 4.33 µM (active)
EC50 (Ion channel NompC): > 29.9 µM (not active)
AC50 [1]: 3.94 µM (active)
IC50 [2]: > 69.6 µM (inactive)

C=CCN1/C(=C/c2ccc3cc(C)ccc3[n+]2CC)C=Cc2ccccc21
EC50 [3]: < 0.1 µM (active)
EC50 [4]: 6.53 µM (active)
IC50 (Exodeoxyribonuclease V): > 39.5 µM (inactive)
IC50 (Nonstructural protein 1): 11.7 µM (active)
IC50 [5]: 35.8 µM (inactive)
IC50 (Galanin receptor type 3): > 0.123 µM (active)
EC50 (cells [6]): > 29.9 µM (inactive)
EC50 (cells [7]): 0.054 µM (active)

C[C@@H]1CN([C@@H](C)CO)C(=O)c2cc(NS(=O)(=O)c3ccc(F)cc3)ccc2O[C@@H](C)CCCCO[C@@H]1CN(C)Cc1ccc(C(F)(F)F)cc1
AC50 (Paired box protein Pax-8): 8.92 µM (active)
AC50 [8]: 62.8 µM (active)
AC50 [9]: 40.5 µM (active)
AC50 [10]: 57.6 µM (active)
AC50 [11]: 55.4 µM (active)

CC(C)N1C[C@H](C)[C@@H](CN(C)C(=O)OC(C)(C)C)Oc2c(C#N)cccc2C1=O
IC50 [12]: > 20 µM (inactive)

COc1ccccc1NC(=O)c1cccc(NC(=O)c2ccccc2C(F)(F)F)c1
IC50 [13]: 1.32 µM (active)
IC50 [14]: 0.149 µM (active)
IC50 [15]: 0.042 µM (active)
